Results taken from patent publication US9593149B2, “Amylin and calcitonin receptor agonist” (Novo Nordisk A/S, priority 2014, dated 2017).
Converted amounts (≈) assume the structure as drawn. Numbered stars: 1 amine (or outer) side, 2 acyl side, 3 side chain; on linkers, the order of the positions; unused ones are H or OH. Peptide text beside a SMILES is read from it. * marks the point of attachment. C20 diacid = O=C(O)CCCCCCCCCCCCCCCCCCC(=O)*; C18 diacid = O=C(O)CCCCCCCCCCCCCCCCC(=O)*; γGlu = O=C(O)[C@H](CCC(=O)[*:2])N[*:1]

Assay: Assay (IV) determination of solubility
Type: physicochemical
Procedure: Assay (IV)—Determination of Solubility
The mimylin peptide was dissolved in water at ˜500 nmol/ml and mixed 1:1 with a series of buffers (100 mM glycylglycine pH 3.0, 100 mM glycylglycine pH 4.0, 100 mM glycylglycine pH 5.0, 100 mM bistrispropane pH 6.0, 100 mM bistrispropane pH 6.5, 100 mM bistrispropane pH 7.0, 100 mM bistrispropane pH 7.5, 100 mM bistrispropane pH 8.0).

Row | Solubility (pH 3.0) | Solubility (pH 4.0) | Solubility (pH 5.0) | Solubility (pH 6.0) | Solubility (pH 6.5) | Solubility (pH 7.0) | Solubility (pH 7.5) | Solubility (pH 8.0) | solubility at 18 h (pH 4.0) [µM] | SMILES
1 | ≧200 μM | ≧200 μM | ≧200 μM | ≧200 μM | ≧200 μM | ≧200 μM | ≧200 μM | ≧200 μM | – | CC(C)C[C@H](NC(=O)[C@H](CCC(=O)O)NC(=O)[C@H](Cc1cnc[nH]1)NC(=O)[C@H](CC(C)C)NC(=O)[C@H](CCC(=O)O)NC(=O)[C@H](C)NC(=O)[C@H](CO)NC(=O)[C@H](CC(C)C)NC(=O)[C@H](CCCNC(=N)N)NC(=O)CNC(=O)[C@H](CC(C)C)NC(=O)[C@@H](NC(=O)[C@H](C)NC(=O)[C@@H](NC(=O)[C@H](CO)NC(=O)[C@H](CC(C)C)NC(=O)[C@H](CCC(=O)O)NC(=O)[C@H](CO)NC(=O)[C@@H]1CCCN1C(=O)[C@H](CCC(=O)O)NC(=O)CCCCCCCCCCCCCCCCC(=O)O)[C@@H](C)O)C(C)C)C(=O)N[C@@H](C)C(=O)N[C@H](C(=O)N[C@@H](CC(C)C)C(=O)N1CCC[C@H]1C(=O)N[C@@H](CCCNC(=N)N)C(=O)N[C@H](C(=O)N[C@@H](CCC(=O)O)C(=O)N[C@H](C(=O)NCC(=O)N1CCC[C@H]1C(=O)N[C@@H](CCC(=O)O)C(=O)N[C@@H](CO)C(=O)N1CCC[C@H]1C(N)=O)[C@@H](C)O)[C@@H](C)O)[C@@H](C)O [compound 28, [N-terminal(C18 diacid), 2P, 9V]mimylin] ({C18 diacid}-EPSELSTAVLGRLSAELHELATLPRTETGPESP-NH2)
2 | ≧200 μM | ≧200 μM | ≧200 μM | ≧200 μM | ≧200 μM | ≧200 μM | ≧200 μM | ≧200 μM | – | CC(C)C[C@H](NC(=O)[C@H](CCC(=O)O)NC(=O)[C@H](Cc1cnc[nH]1)NC(=O)[C@H](CC(C)C)NC(=O)[C@H](CCC(=O)O)NC(=O)[C@H](C)NC(=O)[C@H](CO)NC(=O)[C@H](CC(C)C)NC(=O)[C@H](CCCNC(=N)N)NC(=O)CNC(=O)[C@H](CC(C)C)NC(=O)[C@@H](NC(=O)[C@H](C)NC(=O)[C@@H](NC(=O)[C@H](CO)NC(=O)[C@H](CC(C)C)NC(=O)[C@H](CCC(=O)O)NC(=O)[C@@H]1CCCN1C(=O)[C@H](C)NC(=O)[C@H](CCC(=O)O)NC(=O)CCCCCCCCCCCCCCCCC(=O)O)[C@@H](C)O)C(C)C)C(=O)N[C@@H](C)C(=O)N[C@H](C(=O)N[C@@H](CC(C)C)C(=O)N1CCC[C@H]1C(=O)N[C@@H](CCCNC(=N)N)C(=O)N[C@H](C(=O)N[C@@H](CCC(=O)O)C(=O)N[C@H](C(=O)NCC(=O)N1CCC[C@H]1C(=O)N[C@@H](CCC(=O)O)C(=O)N[C@@H](CO)C(=O)N1CCC[C@H]1C(N)=O)[C@@H](C)O)[C@@H](C)O)[C@@H](C)O [compound 29, [N-terminal(C18 diacid), 3P, 9V]mimylin] ({C18 diacid}-EAPELSTAVLGRLSAELHELATLPRTETGPESP-NH2)
3 | ≧200 μM | ≧200 μM | ≧200 μM | ≧200 μM | ≧200 μM | ≧200 μM | ≧200 μM | ≧200 μM | – | CC(C)C[C@H](NC(=O)[C@H](CCC(=O)O)NC(=O)[C@H](Cc1cnc[nH]1)NC(=O)[C@H](CC(C)C)NC(=O)[C@H](CCC(=O)O)NC(=O)[C@H](C)NC(=O)[C@H](CO)NC(=O)[C@H](CC(C)C)NC(=O)[C@H](CCCNC(=N)N)NC(=O)CNC(=O)[C@H](CC(C)C)NC(=O)[C@@H](NC(=O)[C@H](C)NC(=O)[C@@H](NC(=O)[C@H](CO)NC(=O)[C@H](CC(C)C)NC(=O)[C@H](CCC(=O)O)NC(=O)[C@H](CO)NC(=O)[C@H](C)NC(=O)[C@H](CCC(=O)O)NC(=O)CCCCCCCCCCCCCCCCC(=O)O)[C@@H](C)O)C(C)C)C(=O)N[C@@H](C)C(=O)N[C@H](C(=O)N[C@@H](CC(C)C)C(=O)N1CCC[C@H]1C(=O)N[C@@H](CCCNC(=N)N)C(=O)N[C@H](C(=O)N[C@@H](CCC(=O)O)C(=O)N1CCC[C@H]1C(=O)NCC(=O)N1CCC[C@H]1C(=O)N[C@@H](CCC(=O)O)C(=O)N[C@@H](CO)C(=O)N1CCC[C@H]1C(N)=O)[C@@H](C)O)[C@@H](C)O [compound 32, [N-terminal(C18 diacid), 9V, 28P]mimylin] ({C18 diacid}-EASELSTAVLGRLSAELHELATLPRTEPGPESP-NH2)

Further lines, the compound ahead of its results:

Row | SMILES | Solubility (pH 3.0) | Solubility (pH 4.0) | Solubility (pH 5.0) | Solubility (pH 6.0) | Solubility (pH 6.5) | Solubility (pH 7.0) | Solubility (pH 7.5) | Solubility (pH 8.0) | solubility at 18 h (pH 4.0) [µM]
4 | CC(C)C[C@H](NC(=O)[C@H](CCC(=O)O)NC(=O)[C@H](Cc1cnc[nH]1)NC(=O)[C@H](CC(C)C)NC(=O)[C@H](CCC(=O)O)NC(=O)[C@H](C)NC(=O)[C@H](CO)NC(=O)[C@H](CC(C)C)NC(=O)[C@H](CCCNC(=N)N)NC(=O)CNC(=O)[C@H](CC(C)C)NC(=O)[C@@H](NC(=O)[C@H](C)NC(=O)[C@@H](NC(=O)[C@H](CO)NC(=O)[C@H](CC(C)C)NC(=O)[C@@H]1CCCN1C(=O)[C@H](CO)NC(=O)[C@H](C)NC(=O)[C@H](CCC(=O)O)NC(=O)CCCCCCCCCCCCCCCCC(=O)O)[C@@H](C)O)C(C)C)C(=O)N[C@@H](C)C(=O)N[C@H](C(=O)N[C@@H](CC(C)C)C(=O)N1CCC[C@H]1C(=O)N[C@@H](CCCNC(=N)N)C(=O)N[C@H](C(=O)N[C@@H](CCC(=O)O)C(=O)N[C@H](C(=O)NCC(=O)N1CCC[C@H]1C(=O)N[C@@H](CCC(=O)O)C(=O)N[C@@H](CO)C(=O)N1CCC[C@H]1C(N)=O)[C@@H](C)O)[C@@H](C)O)[C@@H](C)O [compound 30, [N-terminal(C18 diacid), 4P, 9V]mimylin] ({C18 diacid}-EASPLSTAVLGRLSAELHELATLPRTETGPESP-NH2) | ≧200 μM | ≧200 μM | ≧200 μM | ≧200 μM | ≧200 μM | ≧200 μM | ≧200 μM | ≧200 μM | –
5 | CC(C)C[C@H](NC(=O)[C@H](CCC(=O)O)NC(=O)[C@H](Cc1cnc[nH]1)NC(=O)[C@H](CC(C)C)NC(=O)[C@H](CCC(=O)O)NC(=O)[C@H](C)NC(=O)[C@H](CO)NC(=O)[C@H](CC(C)C)NC(=O)[C@H](CCCNC(=N)N)NC(=O)CNC(=O)[C@H](CC(C)C)NC(=O)[C@@H](NC(=O)[C@H](C)NC(=O)[C@@H](NC(=O)[C@H](CO)NC(=O)[C@H](CC(C)C)NC(=O)[C@H](CCC(=O)O)NC(=O)[C@H](CO)NC(=O)[C@H](C)NC(=O)[C@H](CCC(=O)O)NC(=O)CCCCCCCCCCCCCCCCC(=O)O)[C@@H](C)O)C(C)C)C(=O)N[C@@H](C)C(=O)N[C@H](C(=O)N[C@@H](CC(C)C)C(=O)N1CCC[C@H]1C(=O)N1CCC[C@H]1C(=O)N[C@H](C(=O)N[C@@H](CCC(=O)O)C(=O)N[C@H](C(=O)NCC(=O)N1CCC[C@H]1C(=O)N[C@@H](CCC(=O)O)C(=O)N[C@@H](CO)C(=O)N1CCC[C@H]1C(N)=O)[C@@H](C)O)[C@@H](C)O)[C@@H](C)O [compound 31, [N-terminal(C18 diacid), 9V, 25P]mimylin] ({C18 diacid}-EASELSTAVLGRLSAELHELATLPPTETGPESP-NH2) | ≧200 μM | ≧200 μM | ≧200 μM | ≧200 μM | ≧200 μM | ≧200 μM | ≧200 μM | ≧200 μM | –
6 | CC(C)C[C@H](NC(=O)[C@H](CCC(=O)O)NC(=O)[C@H](C)NC(=O)[C@H](CO)NC(=O)[C@H](CC(C)C)NC(=O)[C@H](CCCNC(=N)N)NC(=O)CNC(=O)[C@H](CC(C)C)NC(=O)[C@@H](NC(=O)[C@H](C)NC(=O)[C@@H](NC(=O)[C@H](CO)NC(=O)[C@H](CC(C)C)NC(=O)[C@H](CCC(=O)O)NC(=O)[C@H](CO)NC(=O)[C@H](C)NC(=O)[C@H](CCC(=O)O)NC(=O)CCCCCCCCCCCCCCCCC(=O)O)[C@@H](C)O)C(C)C)C(=O)N[C@@H](C)C(=O)N[C@@H](CCC(=O)O)C(=O)N[C@@H](CC(C)C)C(=O)N[C@@H](C)C(=O)N[C@H](C(=O)N[C@@H](CC(C)C)C(=O)N1CCC[C@H]1C(=O)N[C@@H](CCCNC(=N)N)C(=O)N[C@H](C(=O)N[C@@H](CCC(=O)O)C(=O)N[C@H](C(=O)NCC(=O)N1CCC[C@H]1C(=O)N[C@@H](CCC(=O)O)C(=O)N[C@@H](CO)C(=O)N1CCC[C@H]1C(N)=O)[C@@H](C)O)[C@@H](C)O)[C@@H](C)O [compound 33, [N-terminal(C18 diacid), 9V, 18A]mimylin] ({C18 diacid}-EASELSTAVLGRLSAELAELATLPRTETGPESP-NH2) | ≧200 μM | – | ≧200 μM | ≧200 μM | ≧200 μM | ≧200 μM | ≧200 μM | ≧200 μM | 1 (≈ 3.69 µg/mL)
7 | CC(C)C[C@H](NC(=O)[C@H](C)NC(=O)[C@H](C)NC(=O)[C@@H](NC(=O)[C@H](CO)NC(=O)[C@H](CC(C)C)NC(=O)[C@H](CCC(=O)O)NC(=O)[C@H](CO)NC(=O)[C@H](C)NC(=O)[C@H](CCC(=O)O)NC(=O)CC[C@H](NC(=O)CCCCCCCCCCCCCCCCCCC(=O)O)C(=O)O)[C@@H](C)O)C(=O)NCC(=O)N[C@@H](CCCNC(=N)N)C(=O)N[C@@H](CC(C)C)C(=O)N[C@@H](CO)C(=O)N[C@@H](C)C(=O)N[C@@H](CCC(=O)O)C(=O)N[C@@H](CC(C)C)C(=O)N[C@@H](Cc1cnc[nH]1)C(=O)N[C@@H](CCC(=O)O)C(=O)N[C@@H](CC(C)C)C(=O)N[C@@H](C)C(=O)N[C@H](C(=O)N[C@@H](Cc1ccc(O)cc1)C(=O)N1CCC[C@H]1C(=O)N[C@@H](CCCNC(=N)N)C(=O)N[C@H](C(=O)N[C@@H](CCC(=O)O)C(=O)N[C@H](C(=O)NCC(=O)N[C@@H](CO)C(=O)NCC(=O)N[C@@H](CO)C(=O)N1CCC[C@H]1C(N)=O)[C@@H](C)O)[C@@H](C)O)[C@@H](C)O [compound 34, [N-terminal(C20 diacid-gGlu), 23Y, 30S, 31G]mimylin] ({C20 diacid-γGlu}-EASELSTAALGRLSAELHELATYPRTETGSGSP-NH2) | ≧200 μM | ≧200 μM | ≧200 μM | ≧200 μM | ≧200 μM | ≧200 μM | ≧200 μM | ≧200 μM | –
